From ChEMBL document CHEMBL4428075, “New antiproliferative 7-(4-(N-substituted carbamoylmethyl)piperazin-1-yl) derivatives of ciprofloxacin induce cell cycle arrest at G2/M phase” (Bioorg Med Chem, 2016)

What was measured:
SW-620 = assay: Antiproliferative activity against human SW620 cells at 10^-5 M after 48 hrs by SRB assay; type: functional; settings: SW-620, 48 h, read-out: GI
HCT-15 = assay: Antiproliferative activity against human HCT15 cells at 10^-5 M after 48 hrs by SRB assay; type: functional; settings: HCT-15, 48 h, read-out: GI
HCT-116 = assay: Antiproliferative activity against human HCT116 cells at 10^-5 M after 48 hrs by SRB assay; type: functional; settings: HCT-116, 48 h, read-out: GI
SNB-75 = assay: Antiproliferative activity against human SNB75 cells at 10^-5 M after 48 hrs by SRB assay; type: functional; settings: SNB-75, 48 h, read-out: GI
Malme-3M = assay: Antiproliferative activity against human MALME-3M cells at 10^-5 M after 48 hrs by SRB assay; type: functional; settings: read-out: GI
NCI/ADR-RES = assay: Antiproliferative activity against human NCI-ADR-RES cells at 10^-5 M after 48 hrs by SRB assay; type: functional; settings: read-out: GI
HOP-92 = assay: Antiproliferative activity against human HOP92 cells at 10^-5 M after 48 hrs by SRB assay; type: functional; settings: HOP-92, 48 h, read-out: GI
SK-MEL-28 = assay: Antiproliferative activity against human SK-MEL-28 cells at 10^-5 M after 48 hrs by SRB assay; type: functional; settings: SK-MEL-28, 48 h, read-out: GI
IGROV-1 = assay: Antiproliferative activity against human IGROV1 cells at 10^-5 M after 48 hrs by SRB assay; type: functional; settings: IGROV-1, 48 h, read-out: GI
SK-MEL-2 = assay: Antiproliferative activity against human SK-MEL-2 cells at 10^-5 M after 48 hrs by SRB assay; type: functional; settings: SK-MEL-2, 48 h, read-out: GI
A549 [1] = assay: Antiproliferative activity against human A549 cells at 10^-5 M after 48 hrs by SRB assay; type: functional; settings: A549, 48 h, read-out: GI
MDA-MB-231 = assay: Antiproliferative activity against human MDA-MB-231 cells at 10^-5 M after 48 hrs by SRB assay; type: functional; settings: MDA-MB-231, 48 h, read-out: GI
UACC-257 = assay: Antiproliferative activity against human UACC257 cells at 10^-5 M after 48 hrs by SRB assay; type: functional; settings: UACC-257, 48 h, read-out: GI
MDA-MB-468 = assay: Antiproliferative activity against human MDA-MB-468 cells at 10^-5 M after 48 hrs by SRB assay; type: functional; settings: MDA-MB-468, 48 h, read-out: GI
SK-MEL-5 = assay: Antiproliferative activity against human SK-MEL-5 cells at 10^-5 M after 48 hrs by SRB assay; type: functional; settings: SK-MEL-5, 48 h, read-out: GI
U-251 = assay: Antiproliferative activity against human U251 cells at 10^-5 M after 48 hrs by SRB assay; type: functional; settings: U-251, 48 h, read-out: GI
SK-OV-3 = assay: Antiproliferative activity against human SKOV3 cells at 10^-5 M after 48 hrs by SRB assay; type: functional; settings: SK-OV-3, 48 h, read-out: GI
A549 [2] = assay: Antiproliferative activity against human A549 cells after 24 hrs by BrdU incorporation assay; type: functional, cell-based; settings: A549, 24 h
BT-549 = assay: Antiproliferative activity against human BT549 cells at 10^-5 M after 48 hrs by SRB assay; type: functional; settings: BT-549, 48 h, read-out: GI
NCI-H522 = assay: Antiproliferative activity against human NCI-H522 cells at 10^-5 M after 48 hrs by SRB assay; type: functional; settings: NCI-H522, 48 h, read-out: GI
SNB-19 = assay: Antiproliferative activity against human SNB19 cells at 10^-5 M after 48 hrs by SRB assay; type: functional; settings: SNB-19, 48 h, read-out: GI
MCF7 = assay: Antiproliferative activity against human MCF7 cells at 10^-5 M after 48 hrs by SRB assay; type: functional; settings: MCF7, 48 h, read-out: GI
NCI-H226 = assay: Antiproliferative activity against human NCI-H226 cells at 10^-5 M after 48 hrs by SRB assay; type: functional; settings: NCI-H226, 48 h, read-out: GI
CAKI-1 = assay: Antiproliferative activity against human Caki1 cells at 10^-5 M after 48 hrs by SRB assay; type: functional; settings: CAKI-1, 48 h, read-out: GI
WI-38 = assay: Antiproliferative activity against human WI38 cells after 24 hrs by BrdU incorporation assay; type: cell-based; settings: WI-38, 24 h
786-0 = assay: Antiproliferative activity against human 786-0 cells at 10^-5 M after 48 hrs by SRB assay; type: functional; settings: 786-0, 48 h, read-out: GI
HL-60(TB) = assay: Antiproliferative activity against human HL-60(TB) cells at 10^-5 M after 48 hrs by SRB assay; type: functional; settings: HL-60, 48 h, read-out: GI
NCI-H322M = assay: Antiproliferative activity against human NCI-H322M cells at 10^-5 M after 48 hrs by SRB assay; type: functional; settings: read-out: GI
K562 = assay: Antiproliferative activity against human K562 cells at 10^-5 M after 48 hrs by SRB assay; type: functional; settings: K562, 48 h, read-out: GI
ACHN = assay: Antiproliferative activity against human ACHN cells at 10^-5 M after 48 hrs by SRB assay; type: functional; settings: read-out: GI
MOLT-4 = assay: Antiproliferative activity against human MOLT4 cells at 10^-5 M after 48 hrs by SRB assay; type: functional; settings: MOLT-4, 48 h, read-out: GI
COLO 205 = assay: Antiproliferative activity against human COLO205 cells at 10^-5 M after 48 hrs by SRB assay; type: functional; settings: COLO 205, 48 h, read-out: GI
Hs-578T = assay: Antiproliferative activity against human Hs 578T cells at 10^-5 M after 48 hrs by SRB assay; type: functional; settings: read-out: GI
HCC 2998 = assay: Antiproliferative activity against human HCC2998 cells at 10^-5 M after 48 hrs by SRB assay; type: functional; settings: HCC 2998, 48 h, read-out: GI
OVCAR-5 = assay: Antiproliferative activity against human OVCAR5 cells at 10^-5 M after 48 hrs by SRB assay; type: functional; settings: OVCAR-5, 48 h, read-out: GI
SN12C = assay: Antiproliferative activity against human SN12C cells at 10^-5 M after 48 hrs by SRB assay; type: functional; settings: read-out: GI
UO-31 = assay: Antiproliferative activity against human UO31 cells at 10^-5 M after 48 hrs by SRB assay; type: functional; settings: UO-31, 48 h, read-out: GI
DU-145 = assay: Antiproliferative activity against human DU145 cells at 10^-5 M after 48 hrs by SRB assay; type: functional; settings: DU-145, 48 h, read-out: GI
SF-539 = assay: Antiproliferative activity against human SF539 cells at 10^-5 M after 48 hrs by SRB assay; type: functional; settings: SF-539, 48 h, read-out: GI
EKVX = assay: Antiproliferative activity against human EKVX cells at 10^-5 M after 48 hrs by SRB assay; type: functional; settings: read-out: GI

Structure (SMILES): COc1ccc(NC(=O)CN2CCN(c3cc4c(cc3F)c(=O)c(C(=O)O)cn4C3CC3)CC2)cc1
- inhibition of growth at 10 µM (SW-620): 0%
- inhibition of growth at 10 µM (HCT-15): 0%
- inhibition of growth at 10 µM (HCT-116): 9.38%
- inhibition of growth at 10 µM (SNB-75): 12%
- inhibition of growth at 10 µM (Malme-3M): 5.64%
- inhibition of growth at 10 µM (NCI/ADR-RES): 0%
- inhibition of growth at 10 µM (HOP-92): 5.92%
- inhibition of growth at 10 µM (SK-MEL-28): 2.72%
- inhibition of growth at 10 µM (IGROV-1): 0%
- inhibition of growth at 10 µM (SK-MEL-2): 0%
- inhibition of growth at 10 µM (A549 [1]): 7.18%
- inhibition of growth at 10 µM (MDA-MB-231): 13.8%
- inhibition of growth at 10 µM (UACC-257): 16.9%
- inhibition of growth at 10 µM (MDA-MB-468): 6.39%
- inhibition of growth at 10 µM (SK-MEL-5): 3.22%
- inhibition of growth at 10 µM (U-251): 5.8%
- inhibition of growth at 10 µM (SK-OV-3): 17%
- IC50 (A549 [2]): 24.8 µM
- inhibition of growth at 10 µM (BT-549): 5.78%
- inhibition of growth at 10 µM (NCI-H522): 12.9%
- inhibition of growth at 10 µM (SNB-19): 12.3%
- inhibition of growth at 10 µM (MCF7): 0%
- inhibition of growth at 10 µM (NCI-H226): 16.8%
- inhibition of growth at 10 µM (CAKI-1): 0%
- IC50 (WI-38): > 100 µM
- inhibition of growth at 10 µM (786-0): 20.9%
- inhibition of growth at 10 µM (HL-60(TB)): 0%
- inhibition of growth at 10 µM (NCI-H322M): 26.4%
- inhibition of growth at 10 µM (K562): 5.67%
- inhibition of growth at 10 µM (ACHN): 0%
- inhibition of growth at 10 µM (MOLT-4): 0%
- inhibition of growth at 10 µM (COLO 205): 2.63%
- inhibition of growth at 10 µM (Hs-578T): 5.32%
- inhibition of growth at 10 µM (HCC 2998): 0%
- inhibition of growth at 10 µM (OVCAR-5): 0%
- inhibition of growth at 10 µM (SN12C): 4%
- inhibition of growth at 10 µM (UO-31): 17.8%
- inhibition of growth at 10 µM (DU-145): 0%
- inhibition of growth at 10 µM (SF-539): 5.31%
- inhibition of growth at 10 µM (EKVX): 0%
